Among the data in US12466813B2, “PRC1 inhibitors and methods of treatment therewith” (The Regents of the University of Michigan, priority 2018, dated 2025) are Kd values, retold here.

In the test the target is T1, RING1B-BMI1 (Homo sapiens, UniProt Q99496).
T1 sequence (Q99496 1-336): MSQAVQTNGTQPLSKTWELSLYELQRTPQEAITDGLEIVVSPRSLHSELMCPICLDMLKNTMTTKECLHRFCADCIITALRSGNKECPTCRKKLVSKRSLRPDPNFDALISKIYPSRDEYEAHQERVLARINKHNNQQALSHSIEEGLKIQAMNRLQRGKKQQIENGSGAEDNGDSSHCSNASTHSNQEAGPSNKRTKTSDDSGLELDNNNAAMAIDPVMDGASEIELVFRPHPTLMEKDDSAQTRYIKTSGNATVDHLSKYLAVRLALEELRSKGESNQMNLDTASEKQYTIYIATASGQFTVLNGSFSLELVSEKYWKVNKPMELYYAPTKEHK
T1 sequence (P35226 1-326 partner): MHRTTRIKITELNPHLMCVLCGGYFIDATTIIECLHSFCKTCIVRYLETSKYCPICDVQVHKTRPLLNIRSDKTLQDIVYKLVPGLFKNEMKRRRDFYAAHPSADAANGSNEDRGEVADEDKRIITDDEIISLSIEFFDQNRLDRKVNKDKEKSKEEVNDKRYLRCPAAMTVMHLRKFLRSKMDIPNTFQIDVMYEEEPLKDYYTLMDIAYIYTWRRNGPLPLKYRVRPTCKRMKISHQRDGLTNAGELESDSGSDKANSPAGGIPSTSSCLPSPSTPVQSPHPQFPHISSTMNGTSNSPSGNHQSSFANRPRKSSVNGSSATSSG
The experiment in a line: KD classes of Table A (direct binding to Ring1B-Bmi1). The note with it: class given in Table A.

Structures are written as SMILES.

In the case of `COc1cc(-c2c(C(=O)O)[nH]c(-c3cc(F)cc4[nH]ccc34)c2C(C)C)c2ccn(CCNC(=O)c3nccs3)c2c1` [compound 177, 5-(6-fluoro-1H-indol-4-yl)-4-isopropyl-3-(6-methoxy-1-(2-(thiazole-2-carboxamido)ethyl)-1H-indol-4-yl)-1H-pyrrole-2-carboxylic acid], the Kd is less than 20 µM.
As for `COc1cc(-c2c(C(=O)O)[nH]c(-c3cc(F)cc4[nH]ccc34)c2C(C)C)c2ccn(CCNC(=O)Cc3cscn3)c2c1` [compound 178], the Kd was less than 20 µM.
Compound `COc1cc(-c2c(C(=O)O)[nH]c(-c3cc(F)cc4[nH]ccc34)c2C(C)C)c2ccn(CC(=O)NCc3nc(C)cs3)c2c1` [compound 179] showed a Kd of less than 20 µM.
`CCCC(=O)NCCn1ccc2c(-c3c(C(=O)O)[nH]c(-c4cc(F)cc5[nH]ccc45)c3C(C)C)cc(OC)cc21` [compound 180]: the dissociation constant Kd was less than 20 µM.
Compound `CC(C)c1c(-c2ccc3[nH]ccc3c2)[nH]c(C(=O)O)c1-c1c(Cl)ccc2[nH]ccc12` [compound 181] showed a dissociation constant (Kd) of less than 20 µM.
In turn, `CC(C)c1c(-c2ccc3cc[nH]c3c2)[nH]c(C(=O)O)c1-c1c(Cl)ccc2[nH]ccc12` [compound 182, 3-(5-chloro-1H-indol-4-yl)-5-(1H-indol-6-yl)-4-isopropyl-1H-pyrrole-2-carboxylic acid] came in with a Kd of less than 20 µM.
Turning to `COc1cc(-c2c(C(=O)O)[nH]c(-c3cc(F)cc4[nH]ccc34)c2C(C)C)c2c(C)c[nH]c2c1` [compound 183], the dissociation constant (Kd) was less than 20 µM.
Consider `CCn1ccc2cc(-c3[nH]c(C(=O)O)c(-c4c(Cl)ccc5[nH]ccc45)c3C(C)C)ccc21` [compound 184], for which the dissociation constant Kd was less than 20 µM.
`CC(C)c1c(-c2cc(F)cc3cc[nH]c23)[nH]c(C(=O)O)c1-c1c(Cl)ccc2[nH]ccc12` [compound 185] gave a Kd of less than 20 µM.
Under `CCc1c[nH]c2cc(OC)cc(-c3c(C(=O)O)[nH]c(-c4cc(F)cc5[nH]ccc45)c3C(C)C)c12` [compound 186] stands less than 20 µM.
`CC(C)c1c(-c2cc(F)cc3[nH]ccc23)[nH]c(C(=O)O)c1-c1cccc2[nH]cc(CCO)c12` [compound 187] gave a Kd of less than 20 µM.
Under `CC(C)CCc1c[nH]c2cccc(-c3c(C(=O)O)[nH]c(-c4cc(F)cc5[nH]ccc45)c3C(C)C)c12` [compound 188] stands less than 20 µM; under `CC(C)c1c(-c2cc(F)cc3[nH]ccc23)[nH]c(C(=O)O)c1-c1cccc2[nH]c(CO)cc12` [compound 189], less than 20 µM; under `CC(C)c1c(-c2cc(F)cc3[nH]ccc23)[nH]c(C(=O)O)c1-c1cccc2[nH]c(C(N)=O)cc12` [compound 190], less than 20 µM.
`CC(C)c1c(-c2cc(F)cc3[nH]ccc23)[nH]c(C(N)=O)c1-c1cccc2[nH]c(C(=O)O)cc12` [compound 191] displayed an equilibrium dissociation constant (Kd) of less than 20 µM.
As for `COc1cc(-c2c(C(=O)O)[nH]c(-c3cc(F)cc4[nH]ccc34)c2C(C)C)c2cc(CO)[nH]c2c1` [compound 192], the Kd is less than 20 µM.
In turn, `COc1cc(-c2c(C(=O)O)[nH]c(-c3cc(F)cc4[nH]ccc34)c2C(C)C)c2cc(C)[nH]c2c1` [compound 193] displayed a Kd of less than 20 µM.
For the compound `CC(C)c1c(-c2cc(F)cc3[nH]ccc23)[nH]c(C(=O)O)c1-c1cccc2[nH]c(-c3nnn[nH]3)cc12` [compound 194], the dissociation constant Kd is less than 20 µM.
`CCC(C)c1c(-c2cc(F)cc3[nH]ccc23)[nH]c(C(=O)O)c1-c1cc(OC)cc2[nH]c(CO)cc12` (stereo not drawn) [compound 195] registered an equilibrium dissociation constant (Kd) of less than 20 µM.
With `CC(C)CCOc1cc(-c2c(C(=O)O)[nH]c(-c3cc(F)cc4[nH]ccc34)c2C(C)C)c2cc[nH]c2c1` [compound 196] the figure was less than 20 µM.
In turn, `CC(C)c1c(-c2cc(F)cc3[nH]ccc23)[nH]c(C(=O)O)c1-c1cc(C(=O)O)cc2[nH]ccc12` [compound 197] yielded a dissociation constant Kd of less than 20 µM.
Consider `CC(C)c1c(-c2cc(F)cc3[nH]ccc23)[nH]c(C(=O)O)c1-c1cc(C(=O)N2CCCC2)cc2[nH]ccc12` [compound 198], for which the dissociation constant Kd was less than 20 µM.
Under `CC(C)c1c(-c2cc(F)cc3[nH]ccc23)[nH]c(C(=O)O)c1-c1cc(C(=O)NCC2CC2)cc2[nH]ccc12` [compound 199] stands less than 20 µM; under `CC(C)c1c(-c2cc(F)cc3[nH]ccc23)[nH]c(C(=O)O)c1-c1cc(C(=O)NCc2nccs2)cc2[nH]ccc12` [compound 200], less than 20 µM; under `CC(C)c1c(-c2cc(F)cc3[nH]ccc23)[nH]c(C(=O)O)c1-c1cc(Oc2nccs2)cc2[nH]ccc12` [compound 201], less than 20 µM.
The compound `CC(C)Cc1cc2c(-c3c(C(=O)O)[nH]c(-c4cc(F)cc5[nH]ccc45)c3C(C)C)cccc2[nH]1` [compound 202] displayed a Kd of less than 20 µM.
Compound `CC(C)c1c(-c2cc(F)cc3[nH]ccc23)[nH]c(C(=O)O)c1-c1c[nH]c2ccccc12` [compound 203, 5-(6-fluoro-1H-indol-4-yl)-3-(1H-indol-3-yl)-4-isopropyl-1H-pyrrole-2-carboxylic acid] returned a dissociation constant (Kd) of less than 20 µM.
With `CC(C)c1c(-c2cc(F)cc3[nH]ccc23)[nH]c(C(=O)O)c1-c1cccc2ncsc12` [compound 204] the figure was less than 20 µM.
Take `CC(C)c1c(-c2cc(F)cc3[nH]ccc23)[nH]c(C(=O)O)c1-c1cccc2ncoc12` [compound 205]: the dissociation constant Kd was less than 20 µM.
Compound `CC(C)c1c(-c2cc(F)cc3[nH]ccc23)[nH]c(C(=O)O)c1-c1cccc2nc[nH]c12` [compound 206] registered a Kd of less than 20 µM.
`Cc1cc2c(-c3c(C(=O)O)[nH]c(-c4cc(F)cc5[nH]ccc45)c3C(C)C)ccnc2[nH]1` [compound 207] displayed a Kd of less than 20 µM.
Compound `Cc1c[nH]c2nccc(-c3c(C(=O)O)[nH]c(-c4cc(F)cc5[nH]ccc45)c3C(C)C)c12` [compound 208] yielded a Kd of less than 20 µM.
`Cc1cnc2[nH]ccc2c1-c1c(C(=O)O)[nH]c(-c2cc(F)cc3[nH]ccc23)c1C(C)C` [compound 209] came in with a dissociation constant (Kd) of less than 20 µM.
`CC(C)c1c(-c2cc(F)cc3[nH]ccc23)[nH]c(C(=O)O)c1-c1cccc2[nH]c3ccccc3c12` [compound 210] registered a Kd of less than 20 µM.
With `CC(C)c1c(-c2cc(F)cc3[nH]ccc23)[nH]c(C(=O)O)c1-c1cccc2[nH]c3c(c12)CCCC3=O` [compound 211], the Kd is less than 20 µM.
Under `CC(C)c1c(-c2cc(F)cc3[nH]ccc23)[nH]c(C(=O)O)c1-c1cccc2[nH]c3c(c12)CCC3` [compound 212] stands less than 20 µM; under `CC(C)c1c(-c2cc(F)cc3[nH]ccc23)[nH]c(C(=O)O)c1-c1ccc2c3c1ccn3CCO2` [compound 213], less than 20 µM; under `CC(C)c1c(-c2cccc3c2ccn3N)[nH]c(C(=O)O)c1-c1cccc2[nH]ccc12` [compound 214], less than 20 µM.
For the compound `CC(C)c1c(-c2cc(F)cc3[nH]ccc23)[nH]c(CC(=O)O)c1-c1cccc2[nH]ccc12` [compound 215], the Kd was less than 20 µM.
With `CC(C)c1c(-c2cc(F)cc3[nH]ccc23)[nH]c(CCC(=O)O)c1-c1cccc2[nH]ccc12` [compound 216] the figure was less than 20 µM; with `CC(C)c1c(-c2cc(F)cc3[nH]ccc23)[nH]c(S(N)(=O)=O)c1-c1cccc2[nH]ccc12` [compound 217], less than 20 µM.
Take `CC(C)c1c(-c2cc(F)cc3[nH]ccc23)[nH]c(S(C)(=O)=O)c1-c1cccc2[nH]ccc12` [compound 218]: the Kd is less than 20 µM.
Compound `CC(C)c1c(-c2cc(F)cc3[nH]ccc23)[nH]c(CS(N)(=O)=O)c1-c1cccc2[nH]ccc12` [compound 219] displayed a Kd of less than 20 µM.
`CC(C)c1c(-c2cc(F)cc3[nH]ccc23)[nH]c(CS(C)(=O)=O)c1-c1cccc2[nH]ccc12` [compound 220]: the Kd is less than 20 µM.
`CC(C)c1c(-c2cc(F)cc3[nH]ccc23)[nH]c(CCS(N)(=O)=O)c1-c1cccc2[nH]ccc12` [compound 221] displayed a Kd of less than 20 µM.
`CC(C)c1c(-c2cccc3c(N)c[nH]c23)[nH]c(C(=O)O)c1-c1cccc2[nH]ccc12` [compound 223] had a dissociation constant (Kd) of less than 20 µM.
Consider `CC(C)c1c(-c2cc(F)cc3[nH]ccc23)[nH]c(C(=O)O)c1-c1cccc2[nH]c(-c3nccs3)cc12` [compound 224], for which the dissociation constant Kd is less than 20 µM.
In turn, `CC(C)c1c(-c2cc(F)cc3[nH]ccc23)[nH]c(C(=O)O)c1-c1cccc2[nH]c(-c3ccno3)cc12` [compound 225] yielded a Kd of less than 20 µM.
Consider `CC(C)c1c(-c2cc(F)cc3[nH]ccc23)[nH]c(C(=O)O)c1-c1cccc2[nH]c(-c3cc(O)no3)cc12` [compound 226], for which the Kd is less than 20 µM.
Under `CC(C)c1c(-c2cc(F)cc3[nH]ccc23)[nH]c(C(=O)O)c1-c1cccc2[nH]c(S(N)(=O)=O)cc12` [compound 227] stands less than 20 µM; under `CC(C)c1c(-c2cc(F)cc3[nH]ccc23)[nH]c(C(=O)O)c1-c1cccc2[nH]c(S(C)(=O)=O)cc12` [compound 228], less than 20 µM; under `CC(C)c1c(-c2cc(F)cc3[nH]ccc23)[nH]c(C(=O)O)c1-c1cccc2[nH]c(CS(N)(=O)=O)cc12` [compound 229], less than 20 µM.
Under `CC(C)c1c(-c2cc(F)cc3[nH]ccc23)[nH]c(C(=O)O)c1-c1cccc2[nH]c(CS(C)(=O)=O)cc12` [compound 230] stands less than 20 µM; under `CC(C)c1c(-c2cc(F)cc3[nH]ccc23)[nH]c(C(=O)O)c1-c1cccc2[nH]c(CCS(N)(=O)=O)cc12` [compound 231], less than 20 µM.

Usually Kd stands for the free concentration of one partner at which half of the binding sites on the other are occupied at equilibrium, for simple one-to-one binding. The low end stands for higher affinity, the high end for lower affinity.
